Measurements taken from ChEMBL document CHEMBL4834498, “Positive allosteric modulators (PAMs) of the group II metabotropic glutamate receptors: Design, synthesis, and evaluation as ex-vivo tool compounds” (Bioorg Med Chem Lett, 2021).
Active and inactive are the calls of the source. The calls are words filed in the database; no cut-off is given here.

Experiments:
[1] = molecular target: Metabotropic glutamate receptor 2 (Rattus norvegicus) (UniProt P31421); assay: Positive allosteric modulator activity at rat mGlu2 receptor transfected in GIRK channel overexpressing cells assessed as potentiation of glutamate -induced response by thallium mobilization assay relative to glutamate; parameters: concentration or dose not given beside the values
[2] = molecular target: Metabotropic glutamate receptor 3 (Mus musculus) (UniProt Q9QYS2); assay: Positive allosteric modulator activity at mGlu3 receptor in CaMK2-Cre::GCaMP6s transgenic mouse PFC pyramidal cells assessed as potentiation of LY379268-induced Ca2+ mobilization at 10 uM in presence of mGlu2 negative allosteric modulator, VU6001966 by calcium imagining analysis; format: functional; settings: filed as positive allosteric modulator
[3] = molecular target: Metabotropic glutamate receptor 3 (Rattus norvegicus, UniProt P31422); assay: Positive allosteric modulator activity at rat mGlu3 receptor transfected in GIRK channel overexpressing cells assessed as potentiation of glutamate-induced response by thallium mobilization assay
[4] = molecular target: Metabotropic glutamate receptor 3 (Rattus norvegicus) (UniProt P31422); assay: Positive allosteric modulator activity at rat mGlu3 receptor transfected in GIRK channel overexpressing cells assessed as potentiation of glutamate-induced response by thallium mobilization assay relative to glutamate; parameters: concentration or dose not given beside the values
[5] = molecular target: Metabotropic glutamate receptor 2 (Rattus norvegicus, UniProt P31421); assay: Positive allosteric modulator activity at rat mGlu2 receptor transfected in GIRK channel overexpressing cells assessed as potentiation of glutamate-induced response by thallium mobilization assay
[6] = filed as positive allosteric modulator

Sequence of Metabotropic glutamate receptor 3 (P31422 whole entry): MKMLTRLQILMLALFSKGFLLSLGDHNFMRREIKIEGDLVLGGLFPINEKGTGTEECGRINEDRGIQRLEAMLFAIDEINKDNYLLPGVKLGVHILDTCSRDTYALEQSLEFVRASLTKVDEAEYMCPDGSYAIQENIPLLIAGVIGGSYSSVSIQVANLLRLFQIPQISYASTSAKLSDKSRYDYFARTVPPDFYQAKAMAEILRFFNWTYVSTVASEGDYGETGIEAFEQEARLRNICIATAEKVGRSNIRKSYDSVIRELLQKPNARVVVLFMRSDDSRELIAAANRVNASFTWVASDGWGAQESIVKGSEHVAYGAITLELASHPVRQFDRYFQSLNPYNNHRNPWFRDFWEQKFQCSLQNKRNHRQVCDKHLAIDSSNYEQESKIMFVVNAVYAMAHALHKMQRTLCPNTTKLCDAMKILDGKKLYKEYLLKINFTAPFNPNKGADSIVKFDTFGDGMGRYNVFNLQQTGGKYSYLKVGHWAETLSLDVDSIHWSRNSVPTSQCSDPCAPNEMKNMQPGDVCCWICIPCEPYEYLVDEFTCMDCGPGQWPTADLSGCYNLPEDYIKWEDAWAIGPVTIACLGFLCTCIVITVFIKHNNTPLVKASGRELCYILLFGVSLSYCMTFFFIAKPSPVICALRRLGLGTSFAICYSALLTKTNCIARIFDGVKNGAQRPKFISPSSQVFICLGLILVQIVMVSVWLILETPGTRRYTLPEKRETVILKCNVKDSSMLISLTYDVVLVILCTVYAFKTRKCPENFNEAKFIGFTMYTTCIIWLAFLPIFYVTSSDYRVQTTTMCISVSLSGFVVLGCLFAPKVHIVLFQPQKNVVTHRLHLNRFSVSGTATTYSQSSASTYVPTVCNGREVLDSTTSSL
Sequence of Metabotropic glutamate receptor 3 (Rattus norvegicus) (P31422 23-879 limits assumed): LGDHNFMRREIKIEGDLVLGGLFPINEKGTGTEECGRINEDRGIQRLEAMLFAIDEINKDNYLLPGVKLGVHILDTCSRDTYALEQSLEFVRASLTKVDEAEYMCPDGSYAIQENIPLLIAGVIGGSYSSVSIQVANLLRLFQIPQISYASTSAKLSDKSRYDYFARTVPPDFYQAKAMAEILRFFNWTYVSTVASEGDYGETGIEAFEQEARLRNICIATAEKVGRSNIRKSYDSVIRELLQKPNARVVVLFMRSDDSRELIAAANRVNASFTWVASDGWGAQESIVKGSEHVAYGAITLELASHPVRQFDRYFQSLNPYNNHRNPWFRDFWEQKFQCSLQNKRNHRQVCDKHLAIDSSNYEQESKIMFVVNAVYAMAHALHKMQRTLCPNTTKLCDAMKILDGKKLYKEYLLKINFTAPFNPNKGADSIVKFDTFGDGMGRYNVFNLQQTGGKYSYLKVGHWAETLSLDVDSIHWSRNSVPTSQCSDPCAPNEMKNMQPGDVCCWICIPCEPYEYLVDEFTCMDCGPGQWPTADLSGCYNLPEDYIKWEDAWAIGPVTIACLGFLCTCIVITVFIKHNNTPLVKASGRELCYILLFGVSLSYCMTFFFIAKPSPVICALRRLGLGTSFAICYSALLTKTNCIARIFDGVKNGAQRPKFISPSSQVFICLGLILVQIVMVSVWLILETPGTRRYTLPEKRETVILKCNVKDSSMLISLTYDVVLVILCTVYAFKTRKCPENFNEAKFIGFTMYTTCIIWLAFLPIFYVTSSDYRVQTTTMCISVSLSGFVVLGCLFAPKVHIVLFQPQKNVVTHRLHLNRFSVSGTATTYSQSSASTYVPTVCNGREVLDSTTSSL
Sequence of Metabotropic glutamate receptor 2 (Rattus norvegicus) (P31421 19-872 limits assumed): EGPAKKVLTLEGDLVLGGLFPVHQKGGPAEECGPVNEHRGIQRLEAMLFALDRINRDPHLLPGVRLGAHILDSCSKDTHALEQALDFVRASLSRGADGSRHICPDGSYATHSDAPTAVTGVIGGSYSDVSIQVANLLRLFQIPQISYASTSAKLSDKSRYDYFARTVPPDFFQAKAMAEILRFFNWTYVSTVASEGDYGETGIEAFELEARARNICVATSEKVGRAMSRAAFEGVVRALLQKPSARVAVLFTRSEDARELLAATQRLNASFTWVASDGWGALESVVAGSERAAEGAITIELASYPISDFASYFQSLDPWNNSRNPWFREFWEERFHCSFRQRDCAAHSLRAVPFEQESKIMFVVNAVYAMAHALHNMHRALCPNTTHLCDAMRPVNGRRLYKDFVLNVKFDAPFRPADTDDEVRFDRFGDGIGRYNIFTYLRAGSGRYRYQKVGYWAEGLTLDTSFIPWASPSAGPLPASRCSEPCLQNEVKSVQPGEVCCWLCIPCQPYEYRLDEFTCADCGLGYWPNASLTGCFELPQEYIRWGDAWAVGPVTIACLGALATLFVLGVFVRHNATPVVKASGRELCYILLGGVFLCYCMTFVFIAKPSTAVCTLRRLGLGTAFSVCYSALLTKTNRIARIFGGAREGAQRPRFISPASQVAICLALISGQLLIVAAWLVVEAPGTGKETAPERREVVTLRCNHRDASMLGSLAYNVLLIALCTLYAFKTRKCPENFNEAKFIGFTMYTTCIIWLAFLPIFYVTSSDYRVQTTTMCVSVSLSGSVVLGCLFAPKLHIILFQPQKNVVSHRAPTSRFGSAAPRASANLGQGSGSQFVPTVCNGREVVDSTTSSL
Sequence of Metabotropic glutamate receptor 2 (P31421 whole entry): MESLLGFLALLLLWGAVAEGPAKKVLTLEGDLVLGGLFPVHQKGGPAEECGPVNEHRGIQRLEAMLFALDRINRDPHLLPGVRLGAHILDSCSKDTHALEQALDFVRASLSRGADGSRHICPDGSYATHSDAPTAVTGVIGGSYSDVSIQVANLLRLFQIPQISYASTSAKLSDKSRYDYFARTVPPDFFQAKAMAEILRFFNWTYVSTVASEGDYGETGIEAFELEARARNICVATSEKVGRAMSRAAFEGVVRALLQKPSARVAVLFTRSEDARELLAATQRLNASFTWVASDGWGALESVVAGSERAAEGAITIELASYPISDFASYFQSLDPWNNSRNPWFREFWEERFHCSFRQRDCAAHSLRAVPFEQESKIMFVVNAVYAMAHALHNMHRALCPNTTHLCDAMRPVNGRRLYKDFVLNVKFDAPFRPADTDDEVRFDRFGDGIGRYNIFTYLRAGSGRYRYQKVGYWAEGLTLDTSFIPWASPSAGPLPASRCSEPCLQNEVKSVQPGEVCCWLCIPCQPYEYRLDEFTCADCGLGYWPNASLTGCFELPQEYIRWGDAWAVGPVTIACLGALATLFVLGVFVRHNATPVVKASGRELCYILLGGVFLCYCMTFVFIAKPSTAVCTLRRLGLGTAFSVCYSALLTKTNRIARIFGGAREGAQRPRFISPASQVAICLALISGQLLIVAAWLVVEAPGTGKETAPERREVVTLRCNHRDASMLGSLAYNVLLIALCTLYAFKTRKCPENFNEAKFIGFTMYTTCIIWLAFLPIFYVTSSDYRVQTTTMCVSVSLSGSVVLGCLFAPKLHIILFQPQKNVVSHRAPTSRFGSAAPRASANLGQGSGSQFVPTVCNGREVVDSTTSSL
Sequence of Metabotropic glutamate receptor 3 (Mus musculus) (Q9QYS2 whole entry): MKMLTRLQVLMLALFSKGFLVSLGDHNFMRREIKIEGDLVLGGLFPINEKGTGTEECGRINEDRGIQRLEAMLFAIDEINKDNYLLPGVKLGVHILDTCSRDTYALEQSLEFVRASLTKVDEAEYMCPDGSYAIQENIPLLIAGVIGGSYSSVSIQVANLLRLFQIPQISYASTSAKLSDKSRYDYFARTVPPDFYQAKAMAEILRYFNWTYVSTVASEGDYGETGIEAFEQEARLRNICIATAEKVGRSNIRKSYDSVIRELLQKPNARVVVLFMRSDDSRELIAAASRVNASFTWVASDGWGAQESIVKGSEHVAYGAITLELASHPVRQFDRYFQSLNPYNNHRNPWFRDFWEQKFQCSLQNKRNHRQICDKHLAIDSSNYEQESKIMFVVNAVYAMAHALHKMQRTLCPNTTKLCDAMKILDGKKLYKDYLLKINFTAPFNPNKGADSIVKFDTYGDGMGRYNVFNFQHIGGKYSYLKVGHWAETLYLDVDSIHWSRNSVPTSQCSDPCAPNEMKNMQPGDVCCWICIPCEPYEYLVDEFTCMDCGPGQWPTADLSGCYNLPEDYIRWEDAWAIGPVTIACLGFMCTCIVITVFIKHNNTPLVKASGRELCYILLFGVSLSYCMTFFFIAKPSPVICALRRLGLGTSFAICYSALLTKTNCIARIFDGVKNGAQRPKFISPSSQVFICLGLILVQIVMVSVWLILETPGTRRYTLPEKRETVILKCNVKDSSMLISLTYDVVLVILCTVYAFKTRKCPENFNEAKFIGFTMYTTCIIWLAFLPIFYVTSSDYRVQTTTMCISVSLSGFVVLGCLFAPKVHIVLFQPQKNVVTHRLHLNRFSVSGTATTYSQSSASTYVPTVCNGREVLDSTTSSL

Activity [1, 6] [%]	Activity [2]	EC50 ([3]; read-out: EC50) [nM]	Activity [4, 6] [%]	EC50 ([5]; read-out: EC50) [nM]	EC50 [3]	Activity [4]	Activity [1]	EC50 [5]	SMILES
110	Active	476	103	164	–	–	–	–	CNC(=O)c1cc(OCCCCOc2ccc(C(=O)CC(C)(C)C)c(O)c2C)ccc1F
94	–	1090	86	261	–	–	–	–	Cc1c(OC[C@@H](C)COc2ccc(C(=O)O)c(F)c2)ccc(C(=O)CC(C)(C)C)c1O
116	–	490	99	13	–	–	–	–	COc1ccc(OCCCCOc2ccc(C(=O)CC(C)(C)C)c(O)c2C)cc1C(=O)O
113	–	1520	97	446	–	–	–	–	Cc1cc(C(=O)O)ccc1OC[C@H](C)COc1ccc(C(=O)CC(C)(C)C)c(O)c1C
125	–	1210	117	112	–	–	–	–	Cc1c(OC[C@@H](C)Oc2ccc(F)c(C(=O)O)c2)ccc(C(=O)CC(C)(C)C)c1O
–	–	1850	111	–	–	–	–	–	COc1ccc(C(=O)O)cc1O[C@H](C)COc1ccc(C(=O)CC(C)(C)C)c(O)c1C
50	–	–	–	> 10000	Not Active	inactive	–	–	Cc1c(OC[C@@H](C)COc2ccc3c(c2)C(=O)NC3)ccc(C(=O)CC(C)(C)C)c1O
103	–	–	–	> 10000	Not Active	inactive	–	–	COc1ccc(OCCCCOc2ccc(C(=O)CC(C)(C)C)c(O)c2C)cc1
98	–	1300	87	222	–	–	–	–	Cc1c(OCC(C)COc2ccc(C(=O)O)cc2F)ccc(C(=O)CC(C)(C)C)c1O (single isomer, unassigned)
116	–	79	103	28	–	–	–	–	Cc1ncc(OCCCCOc2ccc(C(=O)CC(C)(C)C)c(O)c2C)cc1C(=O)O
–	–	> 10000	48	–	–	–	–	–	Cc1ccc(OC[C@H](C)COc2ccc(C(=O)CC(C)(C)C)c(O)c2C)cc1C(=O)O
120	–	2200	73	377	–	–	–	–	Cc1c(OC[C@@H](C)COc2ccc(Cl)c(C(=O)O)c2)ccc(C(=O)CC(C)(C)C)c1O
116	–	703	102	102	–	–	–	–	COc1cc(OCCCCOc2ccc(C(=O)CC(C)(C)C)c(O)c2C)cc(C(=O)O)c1
94	–	1460	88	194	–	–	–	–	COc1cc(OC[C@H](C)COc2ccc(C(=O)CC(C)(C)C)c(O)c2C)ccc1C(=O)O
108	–	1110	107	80	–	–	–	–	Cc1c(OCCCCOc2ccc(C(=O)O)c(F)c2)ccc(C(=O)CC(C)(C)C)c1O
114	–	1120	89	257	–	–	–	–	Cc1c(O[C@@H](C)COc2ccc(F)c(C(=O)O)c2)ccc(C(=O)CC(C)(C)C)c1O
97	–	1650	98	477	–	–	–	–	Cc1c(OCC(C)COc2ccc(C(=O)O)cc2Cl)ccc(C(=O)CC(C)(C)C)c1O (single isomer, unassigned)
120	–	892	144	512	–	–	–	–	Cc1ccc(C(=O)O)cc1OCCCCOc1ccc(C(=O)CC(C)(C)C)c(O)c1C
122	–	1100	105	142	–	–	–	–	Cc1c(OC[C@H](C)Oc2ccc(F)c(C(=O)O)c2)ccc(C(=O)CC(C)(C)C)c1O
117	–	2210	91	137	–	–	–	–	COc1ccc(C(=O)O)cc1O[C@@H](C)COc1ccc(C(=O)CC(C)(C)C)c(O)c1C

Activity [1, 6] [%]	Activity [2]	EC50 ([3]; read-out: EC50) [nM]	Activity [4, 6] [%]	EC50 ([5]; read-out: EC50) [nM]	EC50 [3]	Activity [4]	Activity [1]	EC50 [5]	SMILES
91	–	1350	80	305	–	–	–	–	Cc1cc(OC[C@H](C)COc2ccc(C(=O)CC(C)(C)C)c(O)c2C)ccc1C(=O)O
–	–	3820	71	–	–	–	–	–	COc1ccc(C(=O)O)cc1OC[C@H](C)Oc1ccc(C(=O)CC(C)(C)C)c(O)c1C
60	–	–	–	3810	Not Active	inactive	–	–	Cc1c(OCCCCOc2ccc(F)c(C(=O)N(C)C)c2)ccc(C(=O)CC(C)(C)C)c1O
–	–	–	–	–	Not Active	inactive	inactive	Not Active	COc1cccc(OC[C@H](C)COc2ccc(C(=O)CC(C)(C)C)c(O)c2C)c1
112	–	130	87	87	–	–	–	–	Cc1c(OCCCCOc2ccc(Cl)c(C(=O)O)c2)ccc(C(=O)CC(C)(C)C)c1O
–	–	–	–	–	Not Active	inactive	inactive	Not Active	COc1ccccc1OCC(C)COc1ccc(C(=O)CC(C)(C)C)c(O)c1C (single isomer, unassigned)
114	–	806	97	78	–	–	–	–	COc1ccc(C(=O)O)cc1OC[C@@H](C)Oc1ccc(C(=O)CC(C)(C)C)c(O)c1C
–	–	–	–	–	Not Active	inactive	–	–	COC(=O)c1cc(OCCCCOc2ccc(C(=O)CC(C)(C)C)c(O)c2C)ccc1F
107	–	860	93	50	–	–	–	–	Cc1c(OC[C@@H](C)COc2ccc(C(=O)O)c(Cl)c2)ccc(C(=O)CC(C)(C)C)c1O
114	–	651	87	294	–	–	–	–	Cc1c(OC[C@H](C)COc2ccc(F)c(C(=O)O)c2)ccc(C(=O)CC(C)(C)C)c1O
118	–	2410	79	83	–	–	–	–	Cc1c(O[C@H](C)COc2ccc(F)c(C(=O)O)c2)ccc(C(=O)CC(C)(C)C)c1O
110	–	512	93	28	–	–	–	–	COc1cc(C(=O)O)ccc1OC[C@H](C)COc1ccc(C(=O)CC(C)(C)C)c(O)c1C
–	–	3950	74	–	–	–	–	–	Cc1c(OCC(C)COc2cc(C(=O)O)ccc2F)ccc(C(=O)CC(C)(C)C)c1O (single isomer, unassigned)
–	–	1040	120	–	–	–	–	–	COc1ccc(C(=O)O)cc1OC[C@@H](C)COc1ccc(C(=O)CC(C)(C)C)c(O)c1C
99	–	1180	92	112	–	–	–	–	Cc1c(OC[C@@H](C)COc2ccc(F)c(C(=O)O)c2)ccc(C(=O)CC(C)(C)C)c1O
90	–	309	88	210	–	–	–	–	Cc1ccc(OCCCCOc2ccc(C(=O)CC(C)(C)C)c(O)c2C)cc1C(=O)O
107	–	–	–	> 10000	Not Active	inactive	–	–	Cc1c(OCCCCOc2ccc(F)c(C(N)=O)c2)ccc(C(=O)CC(C)(C)C)c1O
82	–	–	–	5060	Not Active	inactive	–	–	COc1ccc(C(=O)N(C)C)cc1OCC(C)COc1ccc(C(=O)CC(C)(C)C)c(O)c1C (single isomer, unassigned)
120	–	180	91	490	–	–	–	–	Cc1c(OCCCCOc2cncc(C(=O)O)c2)ccc(C(=O)CC(C)(C)C)c1O
114	–	1230	98	75	–	–	–	–	Cc1c(OCCCCOc2ccc(C(=O)O)cc2F)ccc(C(=O)CC(C)(C)C)c1O
